In US11180468B2, “Prodrugs of urolithins and uses thereof” (Amazentis SA, priority 2013, dated 2021):
Where a name gives a salt, the structure may show the parent alone. Read-outs that look alike come from different tables or passages of the source. Values belong to the compound of their own block, whether it stands above or below them.

Columns and labels:
[1] = Solubility in phosphate buffer at pH 4 at room temperature, filtered solution analysed by HPLC against DMSO standard; format: physicochemical; details: phosphate buffer pH 4, room temperature; for solubility: aqueous buffer, thermodynamic from solid
Protocol: (§1) All HPLC analyses were carried out on a 5 μL sample on an Agilent 1100 series HPLC system including HPLC pump, auto injector, column oven and PDA detector with a Waters XBridgeC18, 50×2.1 mm, 5 μm column at a temperature of 40° C. and a flow rate of 0.4 mL/min using the following gradient: […]
A maximum amount of each compound was dissolved in 400 μL of phosphate buffer at pH 4 at room temperature in a filter vial (Agilent 0.45 μm PP Mini-UniPrep™). The filtered solutions were analysed by HPLC as described above. The peak area of the substance dissolved in buffer was compared to that of a standard prepared in DMSO.

[2] = Stability (degradation) in aqueous phosphate buffer solution at room temperature, HPLC percentage remaining; format: physicochemical
Protocol: as §1
The stability of the compounds in aqueous solution at room temperature was measured by dissolving the compounds in phosphate buffer of a pH chosen from 2, 3, 4, and/or 5. The compounds with low water solubility were first dissolved in DMSO and then diluted with phosphate buffer to contain 10% of DMSO. The samples were analysed by HPLC, as described above, at time 0 and several times thereafter. The peak area of the samples at these times were compared to the areas at t=0 to calculate the percentage remaining of the starting compound.
The solutions were prepared for each of the compounds as set out in Table 8. Plots of the percentage remaining of starting substance over time for each of the compounds measured are given in FIGS. 1-6, and t50 values (time taken for 50% of the starting compound to degrade) are given in Table 8.

[3] = Oral bioavailability: plasma concentration of Urolithin after oral administration to rats; format: in vivo, Sprague-Dawley rats; details: rat
Protocol: The oral bioavailability of compounds of the invention can be assessed by orally administering a dose of compound in solution to Sprague-Dawley rats. Blood samples are collected from each rat before administration, and at intervals up to 24 hours thereafter. The blood samples are analysed for the plasma concentration of Urolithin. […] The Urolithin A was still present in the blood at a concentration of 2.6 mg/ml at 12 hours following administration in the case of the saline solution, and 1.30 mg/ml in the case of the DMSO/water solution. The Cmax and AUC of Urolithin A were higher when the compound of Example 4 was orally administered than when Urolithin A was orally administered.

[4] = Urolithin B compounds, molar basis, read-out: Solubility (mM/L)
[5] = Urolithin B compounds, read-out: Solubility
[6] = Urolithin A compounds, molar basis, read-out: Solubility (mM/L)
[7] = Urolithin A compounds, read-out: Solubility

solubility [1, 4]: 0.00127 mM
solubility [1, 5]: 0.27 µg/mL
SMILES: O=c1oc2cc(O)ccc2c2ccccc12 [Urolithin B, reference compound]

Degradation rate compared in words ([2]; at pH 4): degrades more slowly than Example 2
t50 (mins), time taken for 50% of the starting compound to degrade ([2]; pH 2, 0.16 mg in 1 mL, FIG. 5): 81 min
t50 (mins), time taken for 50% of the starting compound to degrade ([2]; pH 4, 0.77 mg in 1 mL, FIG. 1): 74 min
t50 (mins), time taken for 50% of the starting compound to degrade ([2]; pH 5, 0.16 mg in 1 mL, FIG. 5): 27 min
solubility [1, 6]: 5.64 mM
solubility [1, 7]: 1930 µg/mL
SMILES: NCC(=O)Oc1ccc2c(c1)oc(=O)c1cc(OC(=O)CN)ccc12 [Example 1, 8-[(2-Aminoacetyl)oxy]-6-oxo-6H-benzo[c]chromen-3-yl 2-aminoacetate dihydrochloride]
Solubility compared in words [1]: more soluble than the Glycine urolithin B compound (Example 3)

solubility [1, 6]: 0.00057 mM
solubility [1, 7]: 0.13 µg/mL
SMILES: O=c1oc2cc(O)ccc2c2ccc(O)cc12 [Urolithin A, reference compound]

More lines, now with the values behind:

SMILES: CC(C)CC(N)C(=O)Oc1ccc2c(c1)oc(=O)c1cc(OC(=O)[C@H](N)CC(C)C)ccc12 (stereo in doubt) [Example 4, 8-{[(2R)-2-Amino-4-methylpentanoyl]oxy}-6-oxo-6H-benzo[c]chromen-3-yl (2S)-2-amino-4-methylpentanoate dihydrochloride]
Degradation rate compared in words ([2]; at pH 4): degrades more slowly than Example 3
t50 (mins), time taken for 50% of the starting compound to degrade ([2]; pH 4, 0.4 mg in 1 mL, FIG. 4): 405 min
solubility [1, 6]: 4.73 mM
solubility [1, 7]: 2150 µg/mL
Solubility compared in words [1]: particularly soluble compared to the parent compound
AUC of Urolithin A compared with oral administration of Urolithin A [3]: higher
Cmax of Urolithin A compared with oral administration of Urolithin A [3]: higher
Delivery of Urolithin A into the blood following oral administration, compared with oral Urolithin A [3]: at least as effectively

SMILES: NCC(=O)Oc1ccc2c(c1)oc(=O)c1ccccc12 [Example 3, 6-Oxo-6H-benzo[c]chromen-3-yl 2-aminoacetate hydrochloride]
Degradation rate compared in words ([2]; at pH 4): degrades more slowly than Example 1
t50 (mins), time taken for 50% of the starting compound to degrade ([2]; pH 4, 0.31 mg in 1 mL, FIG. 3): 156 min
solubility [1, 4]: 4.94 mM
solubility [1, 5]: 1330 µg/mL

SMILES: CC(C)C[C@H](N)C(=O)Oc1ccc2c(c1)oc(=O)c1ccccc12 [Example 5, 6-Oxo-6H-benzo[c]chromen-3-yl (2S)-2-amino-4-methylpentanoate hydrochloride]
Degradation rate compared in words ([2]; at pH 2 and pH 5): degrades more slowly than Example 1
t50 (mins), time taken for 50% of the starting compound to degrade ([2]; pH 2, 0.2 mg in 1 mL, FIG. 6): 240 min
Increase in the rate of degradation when the pH of the solution is increased from 2 to 5 ([2]; pH 2 to pH 5): two-fold
t50 (mins), time taken for 50% of the starting compound to degrade ([2]; pH 5, 0.3 mg in 1 mL, FIG. 6): 125 min

SMILES: CC(N)C(=O)Oc1ccc2c(c1)oc(=O)c1cc(OC(=O)[C@@H](C)N)ccc12 (stereo in doubt) [Example 2, 8-{[(2R)-2-Aminopropanoyl]oxy}-6-oxo-6H-benzo[c]chromen-3-yl (2S)-2-aminopropanoate dihydrochloride]
t50 (mins), time taken for 50% of the starting compound to degrade ([2]; pH 4, 0.33 mg in 0.66 mL (second time), FIG. 2): 31 min
t50 (mins), time taken for 50% of the starting compound to degrade ([2]; pH 4, 0.72 mg in 0.4 mL, FIG. 2): 56 min
t50 (mins), time taken for 50% of the starting compound to degrade ([2]; pH 4, 0.94 mg in 1.8 mL (first time), FIG. 2): 29 min
solubility [1, 6]: 4.86 mM
solubility [1, 7]: 1800 µg/mL
